Reference: patent US20150299290A1, “IMMUNOGENIC VACCINE” (University of Georgia Research Foundation, Inc., priority 2010, published 2015)
Where a SMILES comes first, the peptide text is derived from it. The star is where a group is joined. Propyl(2R-PamO,3-PamO) = CCCCCCCCCCCCCCCC(=O)OC[C@H](C*)OC(=O)CCCCCCCCCCCCCCC; Palmitoyl = CCCCCCCCCCCCCCCC(=O)*

How the values were obtained:
RAW γNO(−) cells = assay: TNF-α and IFN-β production by mouse macrophages (Example 3); type: cell-based; conditions: best-fit values (Prism)
Method: After 5 hours, the supernatants were harvested and examined for mouse TNF-α and IFN-β using commercial or in-house developed capture ELISA assays, respectively.

RAW 264.7 γNO(−) cells = assay: TNF-α and IFN-β assays in macrophages (Example 6); type: cell-based, mouse; conditions: 5.5 h
Method: To examine cytokine production, mouse macrophages (RAW γNO(−) cells) were exposed over a wide range of concentrations to compounds 21-24, E. coli 055:B5 LPS and prototypic E. coli bisphosphoryl lipid A (Zhang, J. Am. Chem. Soc. 2007, 129, 5200-5216). After 5.5 h, the supernatants were harvested and examined for mouse TNF-α and IFN-β using commercial or in-house developed capture ELISAs, respectively (FIG. 6). […] The reduced efficacy of compounds 21 and 23 is probably a beneficial property, because LPS can over-activate the innate immune system leading to symptoms of septic shock.
RAW 264.7 γNO(−) cells were plated on the day of the exposure assay as 2×10^5 cells/well in 96-well plates (Nunc) and incubated with different stimuli for 5.5 h in the presence or absence of polymyxin B. Culture supernatants were collected and stored frozen (−80° C.) until assayed for cytokine production. Concentrations of TNF-α were determined using the TNF-α DuoSet ELISA Development kit from R&D Systems. Concentrations of IFN-β were determined as follows. ELISA MaxiSorp plates were coated with rabbit polyclonal antibody against mouse IFN-β (PBL Biomedical Laboratories). IFN-β in standards and samples was allowed to bind to the immobilized antibody. Rat anti-mouse IFN-β antibody (USBiological) was then added, producing an antibody-antigen-antibody “sandwich”. Next, horseradish peroxidase (HRP) conjugated goat anti-rat IgG (H+L) antibody (Pierce) and a chromogenic substrate for HRP 3,3′,5,5′-tetramethylbenzidine (TMB; Pierce) were added. After the reaction was stopped, the absorbance was measured at 450 nm with wavelength correction set to 540 nm. Concentration-response data were analyzed using nonlinear least-squares curve fitting in Prism (GraphPad Software, Inc.). […] The Hill slope was set at 1 to be able to compare the EC50 values of the different inducers. All cytokine values are presented as the means±SD of triplicate measurements, with each experiment being repeated three times.

[1] = system: GSTPVS(β-O-GlcNAc)SANM (BSA-MI-66 conjugate); set-up: species or system BALB/c mice; conditions: mouse, in vivo

Row | Molecule | Emax for TNF-α production (RAW γNO(−) cells) [pg/mL] | IFN-β secretion (RAW 264.7 γNO(−) cells) | TNF-α secretion (RAW 264.7 γNO(−) cells) | IgG1 titer (anti-GSTPVS(β-O-GlcNAc)SANM) [1] | IgG2a titer (anti-GSTPVS(β-O-GlcNAc)SANM) [1] | IgG2b titer (anti-GSTPVS(β-O-GlcNAc)SANM) [1] | IgG3 titer (anti-GSTPVS(β-O-GlcNAc)SANM) [1] | IgG total titer (anti-GSTPVS(β-O-GlcNAc)SANM) [1] | IgM titer (anti-GSTPVS(β-O-GlcNAc)SANM) [1]
1 | CCCCCCCCCCCCCCCC(=O)N[C@@H](CSC[C@@H](COC(=O)CCCCCCCCCCCCCCC)OC(=O)CCCCCCCCCCCCCCC)C(=O)N[C@@H](CO)C(=O)N[C@@H](CCCCN)C(=O)N[C@@H](CCCCN)C(=O)N[C@@H](CCCCN)C(=O)N[C@@H](CCCCN)C(=O)O [Pam3CysSK4, N-palmitoyl-S—[(R)-2,3-bis(palmitoyloxy)-propyl]-(R)-cysteinyl-(S)-seryl-(S)-lysine-(S)-lysine-(S)-lysine-(S)-lysyne] (Palmitoyl-C(Propyl(2R-PamO,3-PamO))SKKKK-OH) | 932 | none of the compounds induced the production of INF-β | induced secretion of TNF-α with similar efficacies and potencies | – | – | – | – | – | –
2 | CCCCCCCCCCCCCCCC(=O)OC[C@H](CSC[C@H](N)C(=O)N[C@@H](CO)C(=O)N[C@@H](CCCCN)C(=O)N[C@@H](CCCCN)C(=O)N[C@@H](CCCCN)C(=O)N[C@@H](CCCCN)C(=O)O)OC(=O)CCCCCCCCCCCCCCC [Pam2CysSK4, S—[(R)-2,3-bis(palmitoyloxy)-propyl]-(R)-cysteinyl-(S)-seryl-(S)-lysine-(S)-lysine-(S)-lysine-(S)-lysyne] (H-C(Propyl(2R-PamO,3-PamO))SKKKK-OH; C-terminus assumed) | 631 | – | – | – | – | – | – | – | –
3 | Pam3CysSK4G-C-KLFAVWKITYKDT-G-GSTPVS(β-O-GluNAc)SANM [Compound 52] | – | – | – | 61,400 | 33,200 | 12,500 | 69,400 | 76,500 | 81,900
4 | monophosphoryl lipid A [Compound 24] | – | stimulated the cells to produce TNF-α and INF-β | stimulated the cells to produce TNF-α and INF-β | – | – | – | – | – | –
5 | Pam3CysSK4G-C-KLFAVWKITYKDT-G-GSTPVS(β-S-GluNAc)SANM [Compound 53] | – | – | – | 111,800 | 55,600 | 21,300 | 111,700 | 151,600 | 21,900
